{"source": "patent US3963716A", "about": "“Novel 1-phthalazone derivative, a process for its preparation and a pharmaceutical composition containing it” (priority 1973, dated 1976)", "key": {"[1]": {"test_system": "human platelet", "assay": "human platelet aggregation in vitro induced by ADP or adrenaline (CPRP)", "format": "cell-based", "conditions": "200 s", "protocol": "Samples of human CPRP (citrated platelet-rich plasma) were incubated at 37°C. for 200 sec. with 1/10 volume of saline containing various amount of the compound to be tested. To the mixture was then added ADP (3μMole) or adrenaline (1 μg/ml). Intensity of primary and secondary aggregation was measured with a platelet aggregation meter (Chrono-Log, Model 300).\nIntensity of ADP- or adrenaline-induced aggregation of each sample, which was incubated with the compound, was compared with that of the same sample incubated with saline. The ratio was expressed as a percentage of intensity of aggregation with the compound against one with saline.\nThe intensity of primary and secondary aggregation of platelets was measured by the procedure described in H. Yamazaki, T. Sano, et al.; title[Platelet Functions in Thromboembolic Disorders] Thrombosis et Diatheses Haemorrhagica \"in press\" and the references cited therein."}, "[2]": {"test_system": "aorta of rabbits", "assay": "prevention of cholesterol-induced atherosclerosis in rabbits (surface covered by fatty streaks in the aorta)", "format": "in vivo, albino rabbits", "conditions": "rabbit aorta; oral 1 mg/Kg daily, 15 weeks, diet with 1% cholesterol; placebo 54.6±5.4", "protocol": "Forty healthy albino rabbits of the same age and of the same family were used in the experiment.\nAfter the completion of the regimen, the rabbits were killed and the percentage of the surface covered by fatty streaks was measured in each aorta of the rabbits stained with Sundan IV. The percent of the surface covered by fatty streaks in the aorta of the rabbits was measured by the procedure described in T. Shimamoto, F. Numano, T. Fujita; American Heart Journal, 71, 2216 (1966)."}, "[3]": {"test_system": "aortic wall of rabbits", "assay": "regression of preestablished cholesterol-induced atherosclerosis in rabbits (cholesterol content of the aortic wall)", "format": "in vivo, albino rabbits", "conditions": "oral 1 mg/Kg daily, head prints (μg)", "from_the_text": "For the regressive test, 50 healthy albino rabbits were fed with a diet containing 1% cholesterol for 15 weeks. Five rabbits were killed at the 15th week of the cholesterol feeding and the remaining 45 rabbits were divided into 3 groups. […] Five each of the rabbits of the 3 groups were killed after 6, 10 and 20 weeks, respectively. The total contents of cholesterol in the aortic wall were estimated by gas chromatography, the results of which are shown in the Table III.\n1. The total content of cholesterol in the aortic wall was measured by the procedure described in T. Shimamoto, F. Numano, T. Fujita et al.; Asian med. Journal, 8. 12 (1965) 2. […] 3. The total chloesterol contents indicated in Table III were shown in μg per one mg of the dried aortic wall. The value in the Table is the average figure for 5 rabbits"}, "[4]": {"test_system": "cyclic AMP phosphodiesterase", "assay": "inhibition of cyclic AMP phosphodiesterase, human platelet", "format": "biochemical", "conditions": "50% inhibition of cyclic AMP phosphodiesterase; read-out: I50, Platelet (human)", "protocol": "(§1) The procedure of the experiment was carried out in accordance with the method described in H. Hidaka and M. Shibuya: title \"A new assay of cyclic nucleotide phosphodiesterase and its application to humans\", Biochemical Medicine, (in press)."}, "[5]": {"biological_target": "cyclic AMP phosphodiesterase", "assay": "inhibition of cyclic AMP phosphodiesterase, aortic wall intima (rabbit)", "format": "biochemical", "conditions": "50% inhibition of cyclic AMP phosphodiesterase; read-out: I50, Aortic Wall, Intima (rabbit)", "protocol": "as §1"}, "[6]": {"biological_target": "cyclic AMP phosphodiesterase", "assay": "inhibition of cyclic AMP phosphodiesterase, aortic wall media (rabbit)", "format": "biochemical", "conditions": "50% inhibition of cyclic AMP phosphodiesterase; read-out: I50, Aortic Wall, Media (rabbit)", "protocol": "as §1"}, "[7]": {"test_system": "spontaneously hypertensive rats", "assay": "hypotensive effect in spontaneously hypertensive rats", "format": "in vivo, rat", "conditions": "for Blood Pressure: 50 mg/Kg intraperitoneally", "from_the_text": "The present compounds have a unique hypotensive effect in spontaneously hypertensive rats. The spontaneously hypertensive rats, abbreviated as SH rats, are produced by selective breeding of spontaneously hypertensive rats and continuous inbreeding with hypertensive mates, and they might be acknowledged as genetically hypertensive. It is believed that SH rats have a striking similarity to human essential hypertension and their reactions can be extrapolated to this morbid condition.\nIn the blood pressure test, SH rats weighing 210 - 250 g and aged 13-15 weeks were used, and the compounds tested were administered intraperitoneally. Each value in the Table V hows an average figure for three rats."}, "[8]": {"assay": "in vivo", "conditions": "mouse, oral, mice"}, "[9]": {"conditions": "read-out: Inhibition ratio, primary aggregation, Adrenaline 1μg/ml"}, "[10]": {"conditions": "read-out: Inhibition ratio, secondary aggregation, Adrenaline 1μg/ml"}}, "note": "Like-named read-outs stand apart in the source and are kept apart here."}
{"smiles": "CCOC(=O)c1ccc2c(CO)n[nH]c(=O)c2c1", "note": "[7-ethoxycarbonyl-4-hydroxymethyl-1-phthalazone]", "values": [{"measurement": "activity at 5 µg/mL", "setting": "[1]; 5 μg/ml, intensity with compound vs saline, read-out: Inhibition ratio, primary aggregation, ADP 3 μM", "result": "90.5 ± 5.6", "unit": "%"}, {"measurement": "activity at 5 µg/mL", "setting": "[1]; 5 μg/ml, intensity with compound vs saline, read-out: Inhibition ratio, secondary aggregation, ADP 3 μM", "result": "84.9 ± 6.3", "unit": "%"}, {"measurement": "activity at 10 µg/mL", "setting": "[1]; 10 μg/ml, intensity with compound vs saline, read-out: Inhibition ratio, primary aggregation, ADP 3 μM", "result": "81.9 ± 5.2", "unit": "%"}, {"measurement": "activity at 10 µg/mL", "setting": "[1]; 10 μg/ml, intensity with compound vs saline, read-out: Inhibition ratio, secondary aggregation, ADP 3 μM", "result": "67.1 ± 6.3", "unit": "%"}, {"measurement": "activity at 20 µg/mL", "setting": "[1]; 20 μg/ml, intensity with compound vs saline, read-out: Inhibition ratio, primary aggregation, ADP 3 μM", "result": "77 ± 5.1", "unit": "%"}, {"measurement": "activity at 20 µg/mL", "setting": "[1]; 20 μg/ml, intensity with compound vs saline, read-out: Inhibition ratio, secondary aggregation, ADP 3 μM", "result": "58.6 ± 7.6", "unit": "%"}, {"measurement": "activity at 80 µg/mL", "setting": "[1]; 80 μg/ml, intensity with compound vs saline, read-out: Inhibition ratio, primary aggregation, ADP 3 μM", "result": "62.9 ± 5", "unit": "%"}, {"measurement": "activity at 80 µg/mL", "setting": "[1]; 80 μg/ml, intensity with compound vs saline, read-out: Inhibition ratio, secondary aggregation, ADP 3 μM", "result": "15.7 ± 0.4", "unit": "%"}, {"measurement": "activity at 5 µg/mL", "setting": "[1]; [9]", "result": "106 ± 6.9", "unit": "%"}, {"measurement": "activity at 10 µg/mL", "setting": "[1]; [9]", "result": "97 ± 4.1", "unit": "%"}, {"measurement": "activity at 20 µg/mL", "setting": "[1]; [9]", "result": "92.9 ± 16.9", "unit": "%"}, {"measurement": "activity at 5 µg/mL", "setting": "[1]; [10]", "result": "80.8 ± 13.9", "unit": "%"}, {"measurement": "activity at 10 µg/mL", "setting": "[1]; [10]", "result": "82.1 ± 9.5", "unit": "%"}, {"measurement": "activity at 20 µg/mL", "setting": "[1]; [10]", "result": "71.7 ± 13.5", "unit": "%"}, {"measurement": "activity at 80 µg/mL", "setting": "[1]; [10]", "result": "33 ± 7.1", "unit": "%"}, {"measurement": "Percent of surface covered by fatty streaks", "setting": "[2]", "result": "28.8±3.6", "unit": "%"}, {"measurement": "Cholesterol content (aortic wall, total)", "setting": "[3]; 6 weeks, placebo 32.1±3.6", "result": "24.6±3.0", "unit": "μg/mg dry weight"}, {"measurement": "Cholesterol content (aortic wall, total)", "setting": "[3]; 10 weeks, placebo 33.8±3.0", "result": "12.2±3.5", "unit": "μg/mg dry weight"}, {"measurement": "Cholesterol content (aortic wall, total)", "setting": "[3]; 20 weeks, placebo 29.5±5.4", "result": "6.4±2.7", "unit": "μg/mg dry weight"}, {"measurement": "IC50", "setting": "[4]", "result": 57, "unit": "µM"}, {"measurement": "IC50", "setting": "[5]", "result": 52, "unit": "µM"}, {"measurement": "IC50", "setting": "[6]", "result": 144, "unit": "µM"}, {"measurement": "Blood Pressure", "setting": "[7]; 1 hr", "result": 165}, {"measurement": "Blood Pressure", "setting": "[7]; 3 hr", "result": 176}, {"measurement": "Blood Pressure", "setting": "[7]; 6 hr", "result": 180}, {"measurement": "Blood Pressure", "setting": "[7]; 24 hr", "result": 179}, {"measurement": "Blood Pressure", "setting": "[7]; 48 hr", "result": 184}, {"measurement": "Blood Pressure", "setting": "[7]; before dosing", "result": 178}, {"measurement": "hypotensive effect (in words)", "setting": "[7]; intraperitoneal or oral doses up to 50 mg/Kg", "result": "did not exhibit a significant hypotensive effect"}, {"measurement": "LD50", "setting": "[8]", "result": 5000, "unit": "mg/kg"}]}
